Key:
[1] = Physical appearance and form stability at high relative humidity; assay type: physicochemical; conditions: for Hygroscopicity [physical appearance at high RH]: 90% RH, RT
[2] = Dynamic vapor sorption (DVS) hygroscopicity; assay type: physicochemical; conditions: for Hygroscopicity [DVS], grade in words: DVS 5% to 95% RH; for DVS wt. loss 95% to 5% RH: desorption 95% to 5% RH; for DVS wt. gain 5% to 95% RH / DVS water uptake 5% to 95% RH: sorption 5% to 95% RH; for DVS water uptake 5% to 95% RH / DVS water uptake 5% to 75% RH / DVS water uptake 75% to 95% RH: mol water per mol; for DVS hysteresis: sorption vs desorption; for DVS wt. loss 75% to 5% RH: desorption 75% to 5% RH; for DVS wt. loss 95% to 75% RH: desorption 95% to 75% RH; for DVS wt. gain 5% to 75% RH / DVS water uptake 5% to 75% RH: sorption 5% to 75% RH; for DVS wt. gain 75% to 95% RH / DVS water uptake 75% to 95% RH: sorption 75% to 95% RH
[3] = free base; cited from earlier work
[4] = Brito-da-Costa et al 2020; cited from earlier work

## CN(C)CCc1c[nH]c2ccccc12.O=C(O)/C=C/C(=O)O [DMT Fumarate Form A]
[1]; 7 days
  Hygroscopicity [physical appearance at high RH]: white solid
[2]
  Hygroscopicity [DVS], grade in words: limited
  DVS wt. loss 95% to 5% RH: 0.679% wt.
  DVS wt. gain 5% to 95% RH: 0.573% wt.
  DVS water uptake 5% to 95% RH: (0.1 mol/mol
  DVS hysteresis: hysteresis
[2]; listed as Fumarate A
  Hygroscopicity [DVS], grade in words: Limited hygroscopicity
  DVS wt. loss 95% to 5% RH: 95% to 5%: 0.679% wt. loss some
  DVS wt. gain 5% to 95% RH: 0.573 % wt.
  DVS water uptake 5% to 95% RH: 0.1 mol/mol

## CN(C)CCc1c[nH]c2ccccc12.O=C(O)C[C@H](O)C(=O)O [DMT Malate Form A]
[1]; 7 days
  Hygroscopicity [physical appearance at high RH]: white solid
[2]
  Hygroscopicity [DVS], grade in words: significant
  DVS wt. loss 75% to 5% RH: 1.37% wt. loss
  DVS wt. loss 95% to 75% RH: 9.59% wt. loss
  DVS wt. gain 5% to 75% RH: 1.21% wt. gain
  DVS water uptake 5% to 75% RH: (0.4 mol/mol
  DVS wt. gain 75% to 95% RH: 9.75% wt. gain
  DVS water uptake 75% to 95% RH: (1.7 mol/mol
[2]; listed as Malate A
  Hygroscopicity [DVS], grade in words: Significant hygroscopicity
  DVS wt. loss 75% to 5% RH: 75% to 5%: 1.37% wt loss % wt.
  DVS wt. loss 95% to 75% RH: 95% to 75%: 9.59% wt. loss
  DVS wt. gain 5% to 75% RH: 1.21 % wt.
  DVS water uptake 5% to 75% RH: 0.4 mol/mol
  DVS wt. gain 75% to 95% RH: 9.75 % wt.
  DVS water uptake 75% to 95% RH: 1.7 mol/mol

## CN(C)CCc1c[nH]c2ccccc12.O=C(O)CCC(=O)O [DMT Succinate Form A]
[1]; 7 days
  Hygroscopicity [physical appearance at high RH]: white solid
[1]; after water absorption
  Physical form after water absorption: preservation of the physical form
[2]
  Hygroscopicity [DVS], grade in words: low
  DVS wt. loss 95% to 5% RH: 0.175% wt.
  DVS wt. gain 5% to 95% RH: 0.171% wt.
  DVS water uptake 5% to 95% RH: (0.03 mol/mol
  DVS hysteresis: hysteresis
[2]; listed as DMT succinate Form A
  Hygroscopicity [DVS], grade in words: least hygroscopic
[2]; listed as Succinate A
  Hygroscopicity [DVS], grade in words: Low hygroscopicity
  DVS wt. loss 95% to 5% RH: 95% to 5%: 0.175% wt. loss some
  DVS wt. gain 5% to 95% RH: 0.171 % wt.
  DVS water uptake 5% to 95% RH: 0.03 mol/mol

## CN(C)CCc1c[nH]c2ccccc12.O=S(=O)(O)O [DMT Sulfate Form A]
[1]; 1 day
  Hygroscopicity [physical appearance at high RH]: oil/deliquesced

## CN(C)CCc1c[nH]c2ccccc12 [DMT free base, N,N-dimethyltryptamine]
[3]
  Solubility in water: extremely low
[4]
  Degradation rate in solution: fast degradation rate
